Experimental data as given in patent publication US8124594B2, “Methods using phosphatidylserine, lysophosphatidylserine, and/or salts thereof to increase testosterone levels” (Chemi Nutra, LLC, priority 2007, dated 2012).

How the values were obtained:
cortisol response [1] = conditions: cited from earlier work
older males = assay: Effect of PS supplementation on serum and free testosterone of older males with exercise regimens; assay type: in vivo, human
Method: A. subject three, a physically active non smoking […] who took no prescription drugs or alcohol was the first subject. Starting on Day 1, the person consumed 600 mg of Phosphatidylserine (Chemi Nutra, Inc., White Bear Lake, Minn.) for 11 days accompanied by the following cardio and resistance workouts: • Day 1: lifted weights for 1.5 hours and intense cardio exercise, 12 minutes. • Day 2: intense cardio exercise for 28 minutes. • Day 3: easy pace walk, 1.5 mile. • Day 4: intense cardio exercise for 35 minutes. • Day 5: easy pace walk, 2 miles. • Day 6: lifted weights for 1.5 hours. • Days 7 and 8: rest, no exercise. • Day 9 intense cardio exercise, 35 minutes and 12 miles easy pace walk • Day 10: lifted weights 1.5 hours. Blood was drawn at 8:00 am on the first and eleventh day of the study and analyzed for serum and free testosterone by Life Extension National Diagnostics, Inc., Ft. Lauderdale, Fla. Serum testosterone rose from 575 nanograms per decilitier to 665 nanograms per deciliter, a 16% increase. B. The second subject (RJ) is a person. Starting on day 1, RJ consumed 400 mg PS daily for 11 days, accompanied by the following exercise regimens: • Day 2: bicycle ergometer for 30 minutes and elliptical trainer for 30 minutes. • Day 3: tennis singles match for 1.5 hours. • Day 4: treadmill 15 minutes and upper body resistance exercise for 1 hour. • Day 5: elliptical trainer for 45 minutes and resistance exercise for 30 minutes. • Day 6: rest. • Day 7: treadmill for 30 minutes; elliptical trainer for 30 minutes; resistance exercise for 30 minutes. • Day 8: rest. • Day 9: resistance exercise 1.5 hours. • Day 10 elliptical trainer for 1 hour. • Day 11: upper body resistance exercise for 30 minutes. Serum testosterone levels and free testosterone levels were measured on days 1 and 12. Serum testosterone increased from 290 nanograms/deciliter to 437 nanograms/deciliter, an increase of 51%. Free testosterone increased from 11.4 picograms/ml to 18.0 picograms/ml, an increase of 58%. C. The third subject is person one. The person consumed 300 mg PS (Chemi Nutra) daily for 11 days accompanied by a cardio and resistance training workout on days 2-11: • Day 2: 9 miles cycling for 35 minutes; 4 miles running for 40 minutes; 9 miles cycling for 40 minutes. • Day 3: tennis singles match for 1.5 hours. • Day 4: 9 miles cycling for 45 minutes; whole body resistance training for 1 hour; 9 miles cycling for 50 minutes. • Day 5: 9 miles cycling for 30 minutes; 5 miles running for 45 minutes; 9 miles cycling for 30 minutes • Day 6: rest. • Day 7: rest. • Day 8: resistance training 1.5 hours. • Day 9: 9 miles cycling for 50 minutes; upper body resistance exercise 1 hour; 9 miles cycling for 50 minutes. • Day 10: high-intensity resistance training for 30 minutes. • Day 11: 5 miles running for 50 minutes. Serum testosterone levels and free testosterone levels were measured on days 1 and 12. Serum testosterone increased from 734 nanograms/deciliter to 781 nanograms/deciliter, an increase of 6.4%. Free testosterone increased from 22.1 picograms/ml to 27.0 picograms/ml, an increase of 22%.

healthy male subjects = assay: Plasma testosterone response to moderate intensity cycle ergometer exercise after 10 days of oral PS or placebo (double-blind crossover); assay type: in vivo, human
Method: The purpose of the current study was to investigate the efficacy of short-term S-PS supplementation, at dosage levels less than the currently established dose, on testosterone response to acute moderate-intensity exercise. This study aimed to examine the influence of short-term supplementation with a moderate dose of PS (600 mg per day) on plasma concentrations of testosterone before, during, and following moderate intensity exercise in healthy males. 10 healthy male subjects participated in the study. Each subject was assigned to ingest 600 mg PS or placebo per day for 10 days using a double-blind, placebo-controlled, crossover design. Serial venous blood samples were taken at rest, after a 15 minute moderate intensity exercise protocol on a cycle ergometer that consisted of five 3-minute incremental stages beginning at 65% and ending at 85% VO2max, and during a 65 minute passive recovery. Plasma samples were assessed for testosterone for treatment (PS or placebo). PS increased AUC for testosterone to cortisol ratio (184±5%) when compared to placebo (p<0.05).
Subjects. Ten healthy males participated in this study. All subjects in this investigation participated in a familiarization session. During the familiarization session, subjects were informed as to the experimental procedures, completed a personal/medical history form, and signed informed consent statements in adherence with the human subject's guidelines of the American College of Sports Medicine. No subject in this trial was a vegetarian with all subjects reportedly consuming meat in their daily diet.
Each participant completed three testing sessions during the 21-day study. Participants performed a graded exercise test (starting at 50 W, increasing by 50 W increments every 2 minutes) on a cycle ergometer (Gary Fisher Tarpon OS Series Mountain Bike connected to a Computrainer Pro model 8002 RacerMate EBRA™ Approved System with software version 1.1.59) to assess maximal oxygen consumption (VO2max), and were scheduled for testing sessions 2 and 3 (day 11 and day 21). VO2max was determined using a Sensormedic V229 Metabolic System that was calibrated following the recommended technical guidelines (Sensormedics Corporation, Yorba Linda, Calif.). Upon completion of the VO2max test the participants were randomly assigned to one of two groups and received a 10-day supply of either the placebo or PS (600 mg per day of soy-derived PS).
The second and third exercise sessions were performed to determine testosterone responses to exercise induced stress at rest, during exercise, and recovery. On the tenth day of supplementation the participants ingested the last dose of the assigned substance (PS or placebo) and reported to the laboratory at 7 am after an overnight fast. Venous blood samples were taken on arrival (−30) and 30 minutes later, which was just prior to the start of exercise (0). Following the 30 minute rest period, the participants were asked to begin exercising on the cycle ergometer at an exercise intensity calculated to elicit 65% of VO2max. The intensity of exercise was increased automatically by 5% every 3-minute increment until the intensity was at 85% of VO2max (five-three minute stages). After cycling for a total of 15 minutes, the subject stopped exercising and a post-exercise venous blood sample was taken immediately. […]

cortisol response [2] = conditions: 800 mg, cited from earlier work
[3] = subject one, 300 mg daily for 11 days
[4] = subject two, 400 mg daily for 11 days

phosphatidylserine [PS]
cortisol response compared to placebo (cortisol response [1]; 400 mg): no significant result
lowering of cortisol response (cortisol response [1]; 800 mg supplementation): 30%
increase of free testosterone (older males; [3]): 22%
increase of serum testosterone (older males; [3]): 6.4%
free testosterone after treatment (older males; subject one, 300 mg daily for 11 days, day 12, day 1 22.1): 27.0 picograms/ml
serum testosterone after treatment (older males; subject one, 300 mg daily for 11 days, day 12, day 1 734): 781 nanograms/deciliter
increase of serum testosterone (older males; subject three, 600 mg for 11 days): 16%
serum testosterone after treatment (older males; subject three, 600 mg for 11 days, eleventh day, first day 575): 665 nanograms per deciliter
increase of free testosterone (older males; [4]): 58%
increase of serum testosterone (older males; [4]): 51%
free testosterone after treatment (older males; subject two, 400 mg daily for 11 days, day 12, day 1 11.4): 18.0 picograms/ml
serum testosterone after treatment (older males; subject two, 400 mg daily for 11 days, day 12, day 1 290): 437 nanograms/deciliter
increase of AUC for testosterone to cortisol ratio compared to placebo (healthy male subjects; 600 mg PS per day oral for 10 days, 10 healthy males, p<0.05): 184±5%
increase of plasma testosterone concentrations compared with placebo (healthy male subjects; 600 mg/day S-PS for 10 days): 51±6%
plasma testosterone levels at the beginning of the exercise compared to placebo (healthy male subjects; 600 mg/day S-PS for 10 days): higher plasma testosterone levels
increase of testosterone area under the curve versus placebo (healthy male subjects; 600 mg/day S-PS for 10 days, FIG. 2, p=0.02): 37±5%
mean peak concentration of testosterone (healthy male subjects; 600 mg/day S-PS for 10 days, plasma, placebo 5.5±0.3, P (treatment) 0.13): 8.3 ± 1.7 ng/mL
reduction of cortisol response to intensive resistance training (cortisol response [2]): 20%
effect on testosterone levels (cortisol response [2]; intensive resistance training): no effect
